Results as given in US20260285853A1, “COMPOUNDS AND METHODS FOR MODULATING SPLICING” (REMIX THERAPEUTICS INC., priority 2023, published 2026).
Structures can show the parent of a compound that is named as a salt. Where two headings read alike, the source gives them in different places.

Assays:
Assay type in all cases: cell-based
HTT mRNA [1] = test: Splicing RT-qPCR assay (THP), Table 2A
HTT mRNA [2] = test: Gene panel canonical junction qPCR assay, decrease in CJ mRNA, Table 3
Summary of the method: (§1)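 Cells: A673 or K562; 24 h compound exposure, 37 °C, 5% CO2; 11-pt 3-fold series from 10 uM final; DMSO ≤0.25%. Lysate → cDNA → qPCR with junction-spanning primers/probe for CJ transcript. ΔCt vs housekeeper, ΔΔCt vs DMSO, 2^(−ΔΔCt), % response, 4PL → IC50.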

MYB mRNA [3] = test: as above
Summary of the method: as §1

[4] = tested on: SH-SY5Y (human neuroblastoma) cells; test: Cell viability, Cell Titer Glo 2.0 assay; details: read-out: Viability SHSY5Y.3 GI50
Summary of the method: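 CellTiter-Glo 2.0 luminescence read-out after 72 h compound exposure (37 °C, 5% CO2); medium-only wells as blank. DMSO 0.1% final.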

MYB mRNA [5] = test: Splicing RT-qPCR assay (THP), Table 2A
[6] = Table 2A (THP), AJ mRNA increase, read-out: HTT AJ (increase in alternative junction mRNA, AC50)
[7] = Table 2A (THP), CJ mRNA decrease, read-out: HTT CJ (decrease in canonical junction mRNA, IC50)
[8] = decrease in canonical junction (CJ) mRNA, gene panel qPCR, Table 3
[9] = Table 2A (THP), AJ mRNA increase, read-out: MYB AJ (increase in alternative junction mRNA, AC50)
[10] = Table 2A (THP), CJ mRNA decrease, read-out: MYB CJ (decrease in canonical junction mRNA, IC50)
[11] = Table 2A, THP, HTT alternative junction (AJ) mRNA, read-out: HTT AJ (AC50, increase in alternative junction mRNA)
[12] = Table 2A, THP, HTT canonical junction (CJ) mRNA, read-out: HTT CJ (IC50, decrease in canonical junction mRNA)
[13] = decrease in CJ mRNA levels, canonical junction qPCR, gene panel
[14] = Table 2A, THP, MYB alternative junction (AJ) mRNA, read-out: MYB AJ (AC50, increase in alternative junction mRNA)
[15] = Table 2A, THP, MYB canonical junction (CJ) mRNA, read-out: MYB CJ (IC50, decrease in canonical junction mRNA)

IC50 (HTT mRNA [1]; [7]) | IC50 (HTT mRNA [2]; [8]) | IC50 (MYB mRNA [3]; [8]) | GI50 [4] | IC50 (MYB mRNA [5]; [10]) | IC50 (HTT mRNA [1]; [12]) | IC50 (HTT mRNA [2]; [13]) | IC50 (MYB mRNA [3]; [13]) | IC50 (MYB mRNA [5]; [15]) | Structure (SMILES) | AC50 (HTT mRNA [1]; [6]) | AC50 (MYB mRNA [5]; [9]) | AC50 (HTT mRNA [1]; [11]) | AC50 (MYB mRNA [5]; [14])
> 10000 nM | > 10000 nM | > 10000 nM | > 10000 nM | > 10000 nM |  |  |  |  | Cc1cn2cc(NC(=O)c3ccc(N4CCC(NC5CC5)CC4)c4cn(C)nc34)nc2c(-c2cnn[nH]2)n1 [Compound 579, 4-(4-(cyclopropylamino)piper-idin-1-yl)-2-methyl-N-(6-methyl-8-(1H-1,2,3-triazol-5-yl)-imidazo[1,2-a]pyrazin-2-yl)-2H-indazole-7-carbox-amide 2,2,2-trifluoroacetate] | > 10000 nM | > 10000 nM |  | 
 |  |  | > 10000 nM |  | > 10000 nM | > 10000 nM | 1000 to 10000 nM | 1000 to 10000 nM | Cn1cc2cc(NC(=O)c3ccc(N4CCC(NC5CC5)CC4)c4cn(C)nc34)cc(CN)c2n1 [Compound 813, N-[7-(aminomethyl)-2-methyl-indazol-5-yl]-4-[4-(cyclopropylamino)-1-piperidyl]-2-methyl-indazole-7-carboxamide] |  |  | > 10000 nM | 1000 to 10000 nM
100 to 1000 nM | 100 to 1000 nM | < 100 nM | 100 to 1000 nM | < 100 nM |  |  |  |  | CCOc1cc2nn(C)cc2cc1NC(=O)c1c(F)cc(N2CCC(NC3CC3)CC2)c2cn(C)nc12 [Compound 415, 4-[4-(cyclopropyl-amino)-1-piperidyl]-N-(6-ethoxy-2-methylindazol-5-yl)-6-fluoro-2-methylindazole-7-carboxamide] | 100 to 1000 nM | < 100 nM |  | 
 |  |  | 1000 to 10000 nM |  | > 10000 nM | > 10000 nM | < 100 nM | < 100 nM | COc1nc2c(C(=O)Nc3cc(CNC(C)=O)c4nn(C)cc4c3)ccc(N3C[C@H](C)N[C@@H](C)C3)c2s1 [Compound 762, N-[7-(acetamidomethyl)-2-methyl-indazol-5-yl]-7-[(3S,5S)-3,5-dimethylpiperazin-1-yl]-2-methoxy-1,3-benzothiazole-4-carboxamide] |  |  | > 10000 nM | < 100 nM
> 10000 nM | > 10000 nM | > 10000 nM | > 10000 nM | > 10000 nM |  |  |  |  | CCNC1CCN(c2cc(F)c(C(=O)Nc3cn4ccnc(C)c4n3)c3nn(C)cc23)CC1 [Compound 384, 4-[4-(ethylamino)-1-piperidyl]-6-fluoro-2-methyl-N-(8-methyl-imidazo[1,2-a]-pyrazin-2-yl)-indazole-7-carbox-amide] | > 10000 nM | > 10000 nM |  | 
1000 to 10000 nM | 1000 to 10000 nM | < 100 nM | 100 to 1000 nM | < 100 nM |  |  |  |  | COc1c(NC(=O)c2c(F)cc(N3CCC(NC4CC4)C4(CC4)C3)c3cn(C)nc23)cn2cc(C)nc2c1F (centres unmarked) [Compound 369, 4-[8-(cyclopropylamino)-5-azaspiro [2.5]octan-5-yl]-6-fluoro-N-(8-fluoro-7-methoxy-2-methyl-imidazo[1,2-a]-pyridin-6-yl)-2-methyl-indazole-7-carbox-amide] | 100 to 1000 nM | < 100 nM |  | 
 |  |  | 100 to 1000 nM |  | < 100 nM | < 100 nM | < 100 nM | < 100 nM | CNCC1CN(c2ccc(C(=O)Nc3cc(F)c4nn(C)cc4c3)c3nc(OC)sc23)C1 [Compound 750] |  |  | 100 to 1000 nM | < 100 nM
100 to 1000 nM | 100 to 1000 nM | 100 to 1000 nM | 100 to 1000 nM | 100 to 1000 nM |  |  |  |  | COc1cc2nn(C)cc2cc1NC(=O)c1ccc(N2CCN(C3CNC3)CC2)c2cn(C)nc12 [Compound 544] | 100 to 1000 nM | 100 to 1000 nM |  | 
 |  |  | 1000 to 10000 nM |  | > 10000 nM | > 10000 nM | > 10000 nM | > 10000 nM | Cc1cn2cc(NC(=O)c3ccc(N4CCCCC4)c4cn(C)nc34)nc2c(CNS(C)(=O)=O)n1 [Compound 845] |  |  | > 10000 nM | > 10000 nM
 |  |  | 100 to 1000 nM |  | 100 to 1000 nM | 100 to 1000 nM | < 100 nM | < 100 nM | COc1nc2c(C(=O)Nc3cc(F)c4nn(C)cc4c3)ccc(N3CC[C@@H](NC(C)(C)C)C3)c2s1 [Compound 769] |  |  | 100 to 1000 nM | < 100 nM
 |  |  | < 100 nM |  | 100 to 1000 nM | 100 to 1000 nM | < 100 nM | < 100 nM | COc1nc2c(C(=O)Nc3ccc4nn(C)cc4n3)ccc(N3C[C@H](C)N[C@@H](C)C3)c2s1 [Compound 714, 7-[(3S,5S)-3,5-dimethylpiperazin-1-yl]-2-methoxy-N-(2-methylpyrazolo[4,3-b]pyridin-5-yl)-1,3-benzothiazole-4-carboxamide] |  |  | 100 to 1000 nM | < 100 nM

The remaining lines, values behind:

Structure (SMILES) | IC50 (HTT mRNA [1]; [7]) | IC50 (HTT mRNA [2]; [8]) | IC50 (MYB mRNA [3]; [8]) | GI50 [4] | IC50 (MYB mRNA [5]; [10]) | IC50 (HTT mRNA [1]; [12]) | IC50 (HTT mRNA [2]; [13]) | IC50 (MYB mRNA [3]; [13]) | IC50 (MYB mRNA [5]; [15]) | AC50 (HTT mRNA [1]; [6]) | AC50 (MYB mRNA [5]; [9]) | AC50 (HTT mRNA [1]; [11]) | AC50 (MYB mRNA [5]; [14])
COc1cc2nn(C)cc2cc1NC(=O)c1ccc(N2CCC3NCC3C2)c2cn(C)nc12 (centres unmarked) [Compound 542] | > 10000 nM | > 10000 nM | 1000 to 10000 nM | > 10000 nM | 1000 to 10000 nM |  |  |  |  | > 10000 nM | 100 to 1000 nM |  | 
Cc1cn2cc(NC(=O)c3ccc(N4CCC(N(C)C)CC4)c4cn(C)nc34)nc2c(CNS(C)(=O)=O)n1 [Compound 851] |  |  |  | > 10000 nM |  | > 10000 nM | > 10000 nM | > 10000 nM | > 10000 nM |  |  | > 10000 nM | > 10000 nM
CCNC1(C)CCN(c2ccc(C(=O)Nc3cn4cc(C)nc(C)c4c3F)c3nn(C)cc23)CC1 [Compound 571, 4-[4-(ethylamino)-4-methyl-1-piperidyl]-N-(8-fluoro-1,3-dimethyl-pyrrolo[1,2-a]-pyrazin-7-yl)-2-methyl-indazole-7-carboxamide] | > 10000 nM | > 10000 nM | 1000 to 10000 nM | 1000 to 10000 nM | 1000 to 10000 nM |  |  |  |  | > 10000 nM | 1000 to 10000 nM |  | 
COc1cc2c(N3CCC(NC4CC4)CC3)ccc(C(=O)Nc3cn4cc(C)nc4c(OC)n3)n2n1 [Compound 634, 4-[4-(cyclopropyl-amino)-1-piperidyl]-2-methoxy-N-(8-methoxy-2-methylimidazo[1,2-a]pyrazin-6-yl)-pyrazolo[1,5-a]pyridine-7-carboxamide] |  |  |  | 100 to 1000 nM |  | < 100 nM | < 100 nM | < 100 nM | < 100 nM |  |  | < 100 nM | < 100 nM
CCNC1CCN(c2ccc(C(=O)Nc3cc(Oc4ccc(C)cc4)c4nc(C)cn4c3)c3nn(C)cc23)CC1 [Compound 328, 4-(4-(ethylamino)-piperidin-1-yl)-2-methyl-N-(2-methyl-8-(p-tolyloxy)-imidazo[1,2-a]pyridin-6-yl)-2H-indazole-7-carboxamide 2,2,2-trifluoroacetate] | 100 to 1000 nM | 100 to 1000 nM | < 100 nM | 100 to 1000 nM | < 100 nM |  |  |  |  | 100 to 1000 nM | < 100 nM |  | 
Cc1cn2cc(NC(=O)c3ccc(N4CCC(N[C@@H]5C[C@H]5O)CC4)c4cn(C)nc34)cc(F)c2n1 [Compound 370, N-(8-fluoro-2-methylimidazo[1,2-a]pyridin-6-yl)-4-(4-(((1R,2R)-2-hydroxycyclopropyl)amino)piperidin-1-yl)-2-methyl-2H-indazole-7-carboxamide hydrochloride] | 1000 to 10000 nM | 1000 to 10000 nM | 100 to 1000 nM | 1000 to 10000 nM | 100 to 1000 nM |  |  |  |  | 1000 to 10000 nM | < 100 nM |  | 
CCNC1CCN(c2ccc(C(=O)Nc3cc(Oc4ccccc4Cl)c4nc(C)cn4c3)c3nn(C)cc23)CC1 [Compound 313, N-[8-(2-chlorophenoxy)-2-methylimidazo-[1,2-a]pyridin-6-yl]-4-[4-(ethylamino)-1-piperidyl]-2-methyl-indazole-7-carboxamide] | > 10000 nM | > 10000 nM | > 10000 nM | 1000 to 10000 nM | > 10000 nM |  |  |  |  | > 10000 nM | 1000 to 10000 nM |  | 
COc1cc2nn(C)cc2cc1NC(=O)c1ccc(N2CCC(NC3CC3)CC2)n2cc(C)nc12 [Compound 618, 5-[4-(cyclopropylamino)-1-piperidyl]-N-(6-methoxy-2-methyl-indazol-5-yl)-2-methyl-imidazo[1,2-a]-pyridine-8-carboxamide] |  |  |  | 1000 to 10000 nM |  | 1000 to 10000 nM | 1000 to 10000 nM | 100 to 1000 nM | 100 to 1000 nM |  |  | 1000 to 10000 nM | < 100 nM
Cn1cc2cc(NC(=O)c3c(F)cc(N4CCC(NC5CC5)CC4)c4cn(C)nc34)c(F)cc2n1 [Compound 422, 4-[4-(cyclopropylamino)-1-piperidy1]-6-fluoro-N-(6-fluoro-2-methyl-indazol-5-yl)-2-methyl-indazole-7-carboxamide] | 100 to 1000 nM | 100 to 1000 nM | < 100 nM | 100 to 1000 nM | < 100 nM |  |  |  |  | 100 to 1000 nM | < 100 nM |  | 
